Test results: PMC7664216, “An Odorant Binding Protein (SaveOBP9) Involved in Chemoreception of the Wheat Aphid Sitobion avenae” (International Journal of Molecular Sciences, 2020)
Entries after “also recorded” stand apart in the source; their conditions may differ. Read-outs that look alike come from different tables or passages of the source.

Columns and labels:
SaveOBP9 = SaveOBP9 (Sitobion avenae, UniProt A0A1I9ZLB6); assay: Fluorescence competitive ligand binding assay with probe 1-NPN; conditions: 1-NPN probe
SaveOBP9, sequence (A0A1I9ZLB6 entry or part of it): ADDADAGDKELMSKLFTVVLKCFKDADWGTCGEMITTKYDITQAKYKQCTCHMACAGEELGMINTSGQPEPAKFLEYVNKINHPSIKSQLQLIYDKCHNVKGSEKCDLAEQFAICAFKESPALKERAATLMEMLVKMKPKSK
Description: Methanol (spectrophotometric-grade) was used to prepare the standard solution of each tested ligand (Sigma Aldrich, St. Louis, MO, USA). The binding ability of 1-NPN was measured by adding 1-NPN (1 mM) into protein solution (2 μM L^−1) diluted with Tris-HCl (30 mM), and the final concentration was made to 0 to 20 μM L^−1 at room temperature.
The ligand’s binding with SaveOBP9 was conducted with three independent replicates.

Sitobion avenae = assay: Y-tube olfactometer behavioral bioassay; assay type: in vivo; conditions: for Behavioral response of S. avenae: wingless adults, odor 0.10% (v/v) vs liquid paraffin control, pre-RNAi; for Post-RNAi behavioral response of S. avenae: after 3 days of dsSaveOBP9 feeding (50 ng/µL), compared to dsGFP and Control
Text: Behavioral responses of Sitobion avenae were examined by using a glass Y-tube olfactometer (base = 2.0 cm diameter by 14 cm length, arms = 2.0 cm diameter by 13 cm length) using 7 different volatile compounds (Sigma-Aldrich, St. Louis, MO, USA). Air was passed through the activated charcoal for filtration at the continuous rate of 0.5 L/min and humidified using deionized water followed by the splitting of air between two arms of the olfactometer. One arm contained liquid paraffin (control) and the other had the test ligand. In addition, both chambers were connected to the central arm of the Y-tube. An aliquot of odors and liquid paraffin were loaded on with the concentration of 0.10% (v/v). Aphids were then placed in the trunk. Each insect was allowed 15 min to respond to the treatment, and the numbers of aphids showing attraction, repulsion, or no response were counted. Three replications (20 wingless aphids in each replication) for each group were applied.
Y-tube bioassays were carried out before and after dietary RNAi application to confirm the SaveOBP9 gene-silencing outcome. Two treatments containing liquid paraffin and seven compounds (Ki < 10 μM), 2-ethyl1-hexanol, decanal, tetradecane, hexadecane, octanal, α-farnesene, and hexanal, were used. Three treatments containing Control, dsGFP feeding and dsRNA feeding were tested in behavioral trials after 3 days of feeding. For the post-RNAi bioassays, individuals were tested using the compounds: Tetradecane, octanal, decanal, and hexadecane. These four ligands were carefully chosen based on the observation of significant responses of S.avenae to these compounds in bioassays performed prior to the application of dietary RNAi.

AlinOBP1 = tested on: AlinOBP1; design: method as in PMID 21541988; conditions: cited from earlier work
SaveOBP2 = tested on: SaveOBP2; design: method as in PMID 22306433; conditions: cited from earlier work
SaveOBP3 = tested on: SaveOBP3; design: method as in PMID 22306433; conditions: cited from earlier work
SaveOBP7 = tested on: SaveOBP7; design: method as in PMID 22306433; conditions: cited from earlier work
Aphis fabae = tested on: Aphis fabae; design: method as in PMID 18584254; conditions: Black bean aphid Aphis fabae; cited from earlier work

Compound	IC50 (SaveOBP9; pH 5.0, read-out: IC50)	Ki (SaveOBP9; pH 5.0, read-out: Ki)	IC50 (SaveOBP9; pH 7.4, read-out: IC50)	Ki (SaveOBP9; pH 7.4, read-out: Ki)	IC50 (SaveOBP9; IC50, pH 5.0)	IC50 (SaveOBP9; IC50, pH 7.4)	Ki (SaveOBP9; Ki, pH 5.0)	Ki (SaveOBP9; Ki, pH 7.4)	other results
CC12CCC(CC1=O)C2(C)C (racemic) [(±)-Camphor]	17.4 µM	15.7 µM	48.2 µM	42.8 µM					
CC1=CCC2C(C1)C2(C)C (single isomer, unassigned; (+)) [(+)-3-Carene]	39.9 µM	36.1 µM	14.7 µM	13 µM					
C=CC(O)CCCCC (centres unmarked) [1-Octen-3-ol]	34.2 µM	30.9 µM	24.2 µM	21.5 µM					
CCCCC(CC)CO (centres unmarked) [2-Ethyl-1-hexanol]	43.8 µM	39.6 µM	11.2 µM	9.93 µM					Behavioral response of S. avenae (Sitobion avenae): did not show stimuli; Binding affinity (AlinOBP1): high binding affinity
C=CCCN=C=S [3-Butenyl isothiocyanate]					26.3 µM	52.7 µM	23.8 µM	46.8 µM	
CC(=O)c1ccccc1 [Acetophenone]	30.8 µM	27.8 µM	13 µM	11.5 µM					
O=Cc1ccccc1 [Benzaldehyde]					41 µM	109 µM	37 µM	96.5 µM	
Cc1cc(C(C)(C)C)c(O)c(C(C)(C)C)c1 [Butylated Hydroxytoluene]	8.8 µM	7.95 µM	45.6 µM	40.5 µM					
CCCCCCCCCC=O [Decanal]	19.8 µM	17.9 µM	9.95 µM	8.84 µM					Post-RNAi behavioral response of S. avenae (Sitobion avenae): non-significant preference; Behavioral response of S. avenae (Sitobion avenae): significantly showed attractive responses; also recorded: strongly attracted S. avenae; Binding ability (SaveOBP2): None of the three SaveOBPs have the ability to bind; Binding ability (SaveOBP3): None of the three SaveOBPs have the ability to bind; Binding ability (SaveOBP7): None of the three SaveOBPs have the ability to bind; EAG response (Aphis fabae): significant electroantennography (EAG) response
CCCCCCCCCCCCCCCC [Hexadecane]	14.6 µM	13.2 µM	10.9 µM	9.68 µM					Post-RNAi behavioral response of S. avenae (Sitobion avenae): non-significant preference; Behavioral response of S. avenae (Sitobion avenae): significantly showed attractive responses; also recorded: strongly attracted S. avenae; Binding ability (SaveOBP2): None of the three SaveOBPs have the ability to bind; Binding ability (SaveOBP3): None of the three SaveOBPs have the ability to bind; Binding ability (SaveOBP7): None of the three SaveOBPs have the ability to bind
CCCCCC=O [Hexanal]					16.8 µM	8.23 µM	15.2 µM	7.31 µM	Behavioral response of S. avenae (Sitobion avenae): did not show stimuli
C=CC(C)(O)CCC=C(C)C (centres unmarked) [Linalool]					11.8 µM	24.1 µM	10.7 µM	21.4 µM	
COC(=O)c1ccccc1O [Methyl salicylate]					24.2 µM	13.4 µM	21.9 µM	11.9 µM	
c1ccc2ccccc2c1 [Naphthalene]					30.3 µM	13 µM	27.4 µM	11.5 µM	
CCCCCCCCC=O [Nonanal]	12.3 µM	11.1 µM	39.8 µM	35.4 µM					
CCCCCCCC=O [Octanal]	20.3 µM	18.3 µM	8.79 µM	7.8 µM					Post-RNAi behavioral response of S. avenae (Sitobion avenae): non-significant preference; Behavioral response of S. avenae (Sitobion avenae): significantly showed attractive responses; also recorded: strongly attracted S. avenae; Binding ability (SaveOBP2): relatively moderate binding ability; Binding ability (SaveOBP3): relatively moderate binding ability; Binding ability (SaveOBP7): no binding ability; EAG response (Aphis fabae): significant electroantennography (EAG) response

Compound	IC50 (SaveOBP9; pH 5.0, read-out: IC50)	Ki (SaveOBP9; pH 5.0, read-out: Ki)	IC50 (SaveOBP9; pH 7.4, read-out: IC50)	Ki (SaveOBP9; pH 7.4, read-out: Ki)	IC50 (SaveOBP9; IC50, pH 5.0)	IC50 (SaveOBP9; IC50, pH 7.4)	Ki (SaveOBP9; Ki, pH 5.0)	Ki (SaveOBP9; Ki, pH 7.4)	other results
CCCCCCCCCCCCCCC [Pentadecane]	15.1 µM	13.7 µM	12.8 µM	11.4 µM					
C=C(C)[C@@H]1CC=C(C)CC1 [S-(−)-Limonene]	11.5 µM	10.4 µM	32.1 µM	28.5 µM					
CCCCCCCCCCCCCC [Tetradecane]	11.9 µM	10.7 µM	7.96 µM	7.07 µM					Post-RNAi behavioral response of S. avenae (Sitobion avenae): non-significant preference; Behavioral response of S. avenae (Sitobion avenae): significantly showed attractive responses; also recorded: strongly attracted S. avenae
CC/C=C\CCO [cis-3-Hexen-1-ol]					36.9 µM	13.2 µM	33.3 µM	11.8 µM	
CC/C=C\CCOC(C)=O [cis-3-Hexenyl acetate]			29.7 µM	26.4 µM					
CCC/C=C/C=O [trans-2-Hexen-1-al]					21.6 µM	41.9 µM	19.5 µM	37.2 µM	
CCC/C=C/CO [trans-2-Hexen-1-ol]					21.7 µM	14.5 µM	19.6 µM	12.9 µM	
C=CC(=C)CC/C=C(\C)CCC=C(C)C [trans-β-farnesene]									Binding ability (SaveOBP3): could bind; Binding ability (SaveOBP7): could bind
C=C/C(C)=C/C/C=C(\C)CCC=C(C)C [α-Farnesene]	9.51 µM	8.59 µM	10.3 µM	9.11 µM					Behavioral response of S. avenae (Sitobion avenae): did not show stimuli
CC1=CCC2CC1C2(C)C (stereo not drawn) [α-Pinene]					27.2 µM	38 µM	24.6 µM	33.7 µM	
CC1=CC[C@@H](C(C)(C)O)CC1 [α-Terpineol]					37.4 µM	26.2 µM	33.8 µM	23.3 µM	
C=C1CCC2CC1C2(C)C (stereo not drawn) [β -Pinene]					27.7 µM	37.4 µM	25.1 µM	33.2 µM	
C=C1CC/C=C(\C)CC[C@@H]2[C@@H]1CC2(C)C [β-Caryophyllene]					622 µM	52.4 µM	562 µM	46.6 µM	
C=CC(=C)CCC=C(C)C [β-Myrcene]	10.7 µM	9.67 µM	12.2 µM	10.8 µM					
(+)-Limonene oxide	37.5 µM	33.9 µM	24.3 µM	21.6 µM					
